Measurements published in the NIST ThermoML archive (doi:10.1016/j.jct.2014.08.020).
± gives the expanded uncertainty stated by the source.

What was measured:
[1] = molar enthalpy of vaporization or sublimation; conditions: 298.15 K; Liquid; Static calorimetry
[2] = molar heat capacity at constant pressure; conditions: 300.6 K; 101.33 kPa; Liquid; Drop calorimetry

molar enthalpy [1]	molar heat capacity at constant pressure [2]	Compound
13.8 ± 0.237 kcal/mol	–	CCn1ccnc1 [1-ethyl-1H-imidazole]
15.3 ± 0.153 kcal/mol	–	CCCCn1ccnc1 [1-butylimidazole]
19.4 ± 0.335 kcal/mol	382.21 ± 23 J/K/mol	CCCCCCCCn1ccnc1 [1-octylimidazole]
